Measurements reported in patent US20230099858A1, “PYRIDOPYRIMIDINE DERIVATIVES AS KRAS INHIBITORS” (BETA PHARMA, INC., priority 2020, published 2023).
Structures can show the parent of a compound that is named as a salt. Where two headings read alike, the source gives them in different places.

Target: T1, KRAS G12C (Homo sapiens, UniProt P01116, G12C)
T1 construct: aa 2-169, expressed in E. coli; His-tag (TEV cleavable) (N); purchased Reaction Biology Corporation (RBC); host or cells: E. coli
Assay: KRAS G12C/SOS1 Nucleotide Exchange Assay (SOS1-mediated Bodipy-GDP to GTP exchange)
Assay type: biochemical
Conditions: for IC50: substrate Bodipy-GDP/Kras G12C, 30 min pre-incubation at RT
Description: Reaction Buffer: 40 mM HEPES 7.4, 10 mM MgCl2, 1 mM DTT 0.002% Triton X100, 0.1% DMSO (final).
In addition, the final assay volume was 15 μL.
Reaction Procedure: • 1. Deliver 10 uL of 1.5× KRAS solution in freshly prepared reaction buffer to reaction wells. • 2. Deliver compounds in 100% DMSO into buffer using acoustic technology (Echo550; nanoliter range). • 3. Incubate compounds with Kras for 30 minutes at room temperature. • 4. Prepare 3× (SOS1+GTP) solution in reaction buffer. • 5. Deliver 5 μL of SOS1+GTP solution into reactions wells (deliver GTP only to column 1 for no SOS1 control). • 6.
Data Analysis: The fluorescence data was normalized using the equation below and fitted to “one phase exponential decay” equation using GraphPad prism software. The plateau was fixed to zero (use for non-covalent inhibitors) and rate ×1000 was used to calculate the IC50 values. Alternatively, the plateau was unconstrained (for covalent inhibitors) and the span value was used to calculate the IC50 values.
where Yraw is defined as fluorescence at time t, Ao is the average initial fluorescence with no SOS1, and M is the minimum fluorescence at the end of the reaction at the maximum SOS1.
The background subtracted signals (no SOS1 protein wells were used as background) were converted to % activity relative to DMSO controls. Data was analyzed using GraphPad Prism 4 with “sigmoidal dose-response (variable slope)”; 4 parameters with Hill Slope. The constraints were bottom (constant equal to 0) and top (must be less than 1).

[1] = plateau fixed to zero, rate x1000 used, read-out: IC50, Analysis Method: Rate Constant, KRAS G12C

T1 sequence (P01116 2-169 G12C): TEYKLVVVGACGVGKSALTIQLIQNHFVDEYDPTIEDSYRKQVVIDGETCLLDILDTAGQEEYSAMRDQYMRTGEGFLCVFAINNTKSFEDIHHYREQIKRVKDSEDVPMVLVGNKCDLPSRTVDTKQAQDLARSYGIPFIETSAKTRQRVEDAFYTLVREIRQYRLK

inhibition at 10 µM (span analysis, no curve fit, highest concentration tested 10 μM, read-out: inhibition, printed in place of an IC50, Analysis Method: Span, KRAS G12C) [%] | IC50 [1] [µM] | IC50 (plateau unconstrained, span value used (for covalent inhibitors), read-out: IC50, Analysis Method: Span, KRAS G12C) [µM] | SMILES
< 65 | 0.058 |  | C=CC(=O)N1CCN(c2nc(OCC3CCCN3C)nc3nc(-c4cccc5cccc(Cl)c45)ccc23)C[C@H]1C (stereo partly drawn) [Example 1, 1-[(2R)-4-[7-(8-Chloronaphthalen-1-yl)-2-[(1-methylpyrrolidin-2-yl)methoxy]pyrido[2,3-d]pyrimidin-4-yl]-2-methylpiperazin-1-yl]prop-2-en-1-one]
 | 0.008 | 0.025 | C=CC(=O)N1CCN(c2nc(OC[C@@H]3CCCN3C)nc3nc(-c4cccc5cccc(Cl)c45)ccc23)C[C@@H]1CC#N [Example 2, 2-((S)-1-Acryloyl-4-(7-(8-chloronaphthalen-1-yl)-2-(((S)-1-methylpyrrolidin-2-yl)methoxy)pyrido[2,3-d]pyrimidin-4-yl)piperazin-2-yl)acetonitrile trifluoroacetate (1:1)]
